Measurements as given in patent US20240393319A1, “FLUORESCENT SENSORS AND METHODS OF MAKING AND USING” (Howard Hughes Medical Institute, priority 2023, published 2024).
Where two headings read alike, the source gives them in different places.

How the values were obtained:
Rho° (ρ^0) cells = assay: Green:red ratio imaging in Rho° fibroblasts; format: cell-based, mouse; conditions: 10 mM 2dOG
Description: (§1) Rho° and the parental LMTK-cells were maintained in T-75 flasks with DMEM+10% FBS+1 mM pyruvate+5 μM uridine. Two days prior to transfection, they were split into a 24-well plate (half Rho°, half LMTK) at 0.6 and 0.1 million cells per well, respectively. Cells were transfected with iATPSnFR2.HaloTag variants by lipofectamine (0.5 μg DNA+2 μL lipofectamine 2000 per well) for 4-6 hours in DMEM lacking FBS or antibiotics. Transfection media was replaced with fresh DMEM+10% FBS+penicillin/streptomycin overnight. Cells were labeled with JFX650 HaloTag ligand by adding the fluorophore to 100 nM for an hour. Cells were washed with Mammalian Cell Imaging Buffer and imaged in a Cytation 5 imaging reader (BioTek) over the course of about 2 hours. After about 20 minutes of imaging to establish a baseline fluorescence, the culture plate was removed from the instrument and buffer was replaced with the query buffer. The equilibration buffer contained 10 mM glucose, and the query buffers contained 10 mM 2dOG.
(§2) Images were background subtracted and aligned for movement artefacts with the Gen5 software package that controls the Cytation 5 instrument. Images were assembled as TIF stacks and imported into ImageJ. […] Those ROIs were used to determine the ratio of green to red fluorescence for each well. […]

LMTK- cells = assay: Green:red ratio imaging in parental LMTK- fibroblasts; format: cell-based, mouse
Description: as §1, §2

[1] = target: T1, iATPSnFR2.A95A.A119L.HaloTag-JFX650 (L1-VLVG, L2-ICV); cpSFGFP inserted in epsilon subunit of Bacillus subtilis PS3 F0-F1 ATPase; mutations A95A, A119L; SEQ ID N (Bacillus sp. PS3, UniProt P07678); assay: ATP/nucleotide titration, binding curve fits; conditions: for Kd: A95A.A119L; for fluorescence change in response to nucleoside triphosphate: GTP, CTP, TTP
T1 construct: E. coli, Ni-NTA purified
Text: (1A) Artistic rendering of iATPSnFR2.HaloTag made with PyMol. The N-terminal fragment (residues 1-109) of the epsilon subunit of ATPase (orange, based on 2E5Y.PDB) is fused to cpSFGFP (green). The C-terminus of cpSFGFP is fused to the residual ATP-binding helix (residues 110-129) of the epsilon subunit (pink), which itself is fused to HaloTag (cyan). “Linkers” are shown as sticks in yellow. […] HaloTag fluorophore is shown as sticks in red. […] (1C-1E) Ratio of green (iATPSnFR2) to red (HaloTag-JFX650) fluorescence in fibroblasts transfected with three affinity variants of iATPSnFR2-HaloTag. […] Cells were incubated for 21 minutes in buffer containing 10 mM glucose, and then switched to buffer containing 10 mM 2-deoxyglucose. (1C) Rho° cells. (1D) Parental LMTK cell line. (1E) Parental cell line treated with both 2-deoxyglucose and oligomycin.
ATP (black), CTP (cyan), GTP (grey), TTP (purple).
(§3) Purified protein was mixed with 1.1 molar equivalents of JFX650 HaloTag Ligand and incubated at room temperature for 1 hour and then at 4° C. overnight. Excess HaloTag Ligand was removed by gel filtration on a PD-10 column (GE Life Sciences) and re-concentrated by ultrafiltration.
The iATPSnFR2.HaloTag-JFX650 was the primary protein used for in vitro characterization.

MaLion = conditions: cited from earlier work
ChemoG-ATPSiR = conditions: cited from earlier work
[2] = tested on: axonal mitochondria of primary neurons; assay: Axonal mitochondrial ATP (mito-iATPSnFR2) after removal of glucose; format: cell-based
Description: Similar results were obtained in neurons where LDs were induced by blocking DDHD2 activity with KLH45 for 24 hours.

[3] = tested on: axonal mitochondria of primary hippocampal neurons; assay: Mitochondrial matrix ATP without glucose (mito-iATPSnFR2); format: cell-based, Sprague-Dawley rats
Description: Data is represented as mean±SE for N=4 (each condition). […] Data from N=4 for each condition is represented as mean±SE, p-value (**≤0.001 for PA and PA+Etox) was determined using unpaired samples t-test. ns signifies non-significant change in mean values.
(§4) Primary neuronal cultures were prepared as previously described. Hippocampal CA1 to CA3 regions were dissected, dissociated, and plated onto poly-L-ornithine-coated coverslips. Plating media consisted of the minimal essential medium, 0.5% glucose, insulin (0.024 g/l), transferrin ([…]), GlutaMAX 1%, N-21 (2%), and fetal bovine serum (10%). After 1-3 days in vitro (DIV), cells were fed and maintained in media with the following modifications: cytosine β-D-arabinofuranoside (4 μM) and FBS 5%. Cultures were incubated at 37° C. in a 95% air/5% CO2 incubator. […]
(§5) Coverslips were loaded onto a custom chamber, mounted on a Zeiss inverted microscope and perfused at ˜100 μl min^−1 with Tyrode's solution containing: 119 mM NaCl, 2.5 mM KCl, 30 mM glucose, 25 mM HEPES, 2 mM CaCl2), 2 mM MgCl2, 50 μM DL-2-amino-5-phosphonovaleric acid (APV, AP5), 10 μM 6-cyano-7-nitroquinoxaline-2,3-dione (CNQX), adjusted to pH 7.4. […] Fluorescence was stimulated with OBIS 488 nm LX or OBIS 637 nm LS lasers (Coherent) passing through a laser speckle reducer (LSR 3005 at 12° diffusion angle, Optotune). […]

[4] = tested on: axonal mitochondria of primary hippocampal neurons; assay: mito-iATPSnFR2.HaloTag imaging of mitochondrial ATP in neurons; format: cell-based, rat; conditions: 1.25 mM lactate + 1.25 mM pyruvate + 10 μM oligomycin
Description: All experiments involving animals were performed in accordance with protocols approved by the Weill Cornell Medicine Institutional Animal Care and Use Committee. Neurons were derived from Sprague-Dawley rats (Charles River Laboratories strain code: 001, RRID: RGD_734476) of either sex on postnatal days 0-2).
as §4, §5

[5] = TTP titration of purified iATPSnFR2 sensor; format: binding
Description: iATPSnFR2 variants were transformed into E. coli BL21 (DE3) pLysS cells. Protein expression was induced by growth in 300 mL autoinduction media supplemented with 100 μg/mL ampicillin at 30° C. […] Fractions that were fluorescent were pooled and concentrated by ultrafiltration (Amicon) and then dialyzed by Slide-A-Lyzer cassette (30 kDa cutoff) in Mammalian Cell Imaging Buffer. Protein concentration was quantified by alkali denaturation and measurement of the GFP chromophore, with an extinction coefficient of […] at 447 nm.
as §3

[6] = ATP titration with added inorganic phosphate; format: binding; conditions: 20 mM PO4, pH 7
[7] = tested on: synaptic boutons of hippocampal neurons; assay: Syn-iATPSnFR2.HaloTag imaging of ATP depletion in boutons; format: cell-based, rat; conditions: 5 mM glucose + 10 μM KA + 0.3 μM TTX
[8] = Stopped-flow fluorescence kinetics of ATP binding
Description: Final concentration of protein was thus 0.1 μM.

[9] = tested on: nerve terminals of dissociated hippocampal neurons; assay: Cytosolic ATP in nerve terminals during action potential firing; format: cell-based, rat; conditions: 6 sec at 50 Hz, 5 mM glucose + 10 μM KA
[10] = pH dependence of fluorescence; format: physicochemical; conditions: ligand-free sensor

T1 sequence (P07678 whole entry, stated change not applied): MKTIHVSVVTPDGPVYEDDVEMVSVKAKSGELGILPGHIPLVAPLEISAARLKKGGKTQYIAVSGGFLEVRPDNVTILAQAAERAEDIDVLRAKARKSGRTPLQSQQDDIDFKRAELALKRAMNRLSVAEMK

## O=CC[C@@H](O)[C@H](O)[C@H](O)CO [2dOG, 2-deoxyglucose]
Rho° (ρ^0) cells
  green fluorescence after glucose replaced with 2dOG: rapidly dropped
LMTK- cells; 10 mM 2dOG, parental LMTK- cells
  fluorescence after 2dOG treatment: decreased fluorescence only in the parental LMTK-cells expressing the weakest affinity variant

## Nc1ncnc2c1ncn2[C@@H]1O[C@H](COP(=O)(O)OP(=O)(O)O)[C@@H](O)[C@H]1O [ADP]
[1]
  ΔF/F for ADP: ~6
[1]; read-out: affinity for ADP (binding curve fit), head-to-head with ATP
  Kd: 5.3 mM
[1]; read-out: affinity for ADP, FIG. 1B, 5D
  Kd: 5.3 mM

## Nc1ncnc2c1ncn2[C@@H]1O[C@H](COP(=O)(O)O)[C@@H](O)[C@H]1O [AMP]
[1]
  affinity for AMP: minimal, if any, affinity

## Nc1ccn([C@@H]2O[C@H](COP(=O)(O)OP(=O)(O)OP(=O)(O)O)[C@@H](O)[C@H]2O)c(=O)n1 [CTP]
[1]; FIG. 5E
  fluorescence change in response to nucleoside triphosphate: changes fluorescence
[1]; read-out: affinity for CTP (binding curve fit), FIG. 5E
  Kd: ~10 mM

## Nc1nc2c(ncn2[C@@H]2O[C@H](COP(=O)(O)OP(=O)(O)OP(=O)(O)O)[C@@H](O)[C@H]2O)c(=O)[nH]1 [GTP]
[1]; FIG. 5E
  fluorescence change in response to nucleoside triphosphate: changes fluorescence
[1]; read-out: affinity for GTP (binding curve fit), FIG. 5E
  Kd: ~10 mM
MaLion
  change in fluorescence with GTP: no change in fluorescence
ChemoG-ATPSiR
  change in fluorescence with GTP: no change in fluorescence

## O=C(N(CCc1ccccc1)C1CCCCC1)n1ncc(-c2ccc(OC(F)(F)F)cc2)n1 [KLH45]
[2]; DDHD2 blocked for 24 hours, then glucose and KLH45 removed
  mitochondrial ATP levels after removal of glucose: sustained
[3]; KLH45 for 24 hours, then removed
  mitochondrial ATP levels in absence of glucose: ATP levels are sustained

## Cc1cn([C@H]2C[C@H](O)[C@@H](COP(=O)(O)OP(=O)(O)OP(=O)(O)O)O2)c(=O)[nH]c1=O [TTP]
[1]; FIG. 5E
  fluorescence change in response to nucleoside triphosphate: not

## CCOC(=O)[C@@]1(CCCCCCOc2ccc(Cl)cc2)CO1 [etomoxir]
[2]; after KLH45 24 hours, etomoxir included
  mitochondrial ATP levels after removal of glucose: ATP decline over a 10-minute period
[2]; palmitic acid pre-fed neurons, applied when removing glucose
  decline in mitochondrial ATP level: identical to the control neurons without any fuel supplement

## CC[C@H]1/C=C/C=C/C[C@@H](C)[C@H](O)[C@@](C)(O)C(=O)[C@@H](C)[C@H](O)[C@@H](C)C(=O)[C@@H](C)[C@H](O)[C@@H](C)/C=C/C(=O)O[C@@H]2[C@H](C)[C@H](CC1)O[C@]1(CC[C@H](C)[C@H](C[C@@H](C)O)O1)[C@H]2C [oligomycin]
LMTK- cells; parental cells, both 2dOG and oligomycin
  fluorescence after 2dOG and oligomycin: dropped in a manner similar to the ρ^0 cells
[4]
  mitochondrial ATP signal: further collapse of the ATP signal

## CCCCCCCCCCCCCCCC(=O)O [palmitic acid]
[2]; pre-fed for 4 hours, 10 minutes
  mitochondrial ATP levels in absence of glucose: sustained
[3]; palmitic acid pre-fed for 4 hours, 10 minutes
  mitochondrial ATP levels in absence of glucose: mitochondrial ATP levels were sustained

## A95A.A119L: low affinity iATPSnFR2 variant, characterised as HaloTag-JFX650 fusion
[5]
  fluorescence response to TTP: but not TTP
[6]
  effect of inorganic phosphate on the sensor: negligibly affected
Rho° (ρ^0) cells
  green fluorescence after glucose replaced with 2dOG: nearly non-fluorescent within minutes of treatment
[7]
  average green to red fluorescence ratio in boutons: greater drop than the medium affinity A95K variant

## A95K: medium affinity iATPSnFR2 variant, characterised as HaloTag-JFX650 fusion
[8]
  rate of ATP binding / fluorescence change, comparison: faster than A95A.A119L
[9]
  fluorescence change on action potential firing: much smaller amplitude

## S29W.A95K: high affinity iATPSnFR2 variant, characterised as HaloTag-JFX650 fusion
[8]
  rate of ATP binding / fluorescence change, comparison: faster than A95A.A119L

## iATPSnFR2: improved ATP sensor: cpSFGFP inserted in epsilon subunit of ATPase, L1-VLVG, L2-ICV, A95A, A119L
[6]
  effect of inorganic phosphate on the sensor: not affected
[10]
  pKa: about 6.0
